Assay results taken from US9820972B2, “Antiviral compounds highly effective as HCV-NS5A inhibitor” (priority 2013, dated 2017).

Test system: GT-1a of NS5A Replicon
Experiment: HCV double reporter gene (Renilla luciferase) replicon assay, GT-1a
Type: cell-based, Hepatitis C virus (HCV)
Conditions: GT-1a replicon; class symbols; read-out: EC50 For GT-1a of NS5A Replicon
Method: Antiviral Assay for Inhibition Activity (EC50):
The study is completed by a new constructed double reporter genes replicon assay system, the capacity of viral replicon in infected cell is determined by detecting the reporter gene Renilla luciferase. The relationship of reporter genes, HCV RNA replicon and viral proteins is well linear. 8 gradient concentrations for 2-fold dilution, 3 wells, 3 times repetition and 1 or 2 control drugs are set to finally determine EC50 of compound.
THF was distilled from sodium metal and benzophenone. DCM, pentane and hexane were distilled form calcium hydride. Special raw material and intermediate in the invention were ordered by contract synthesis from Zannan SciTech Co., Let in China, others reagents were purchased from Shanghai reagent company, Aldrich, Acros etc. As intermediates or products during the synthesis is not required for the reaction and other tests the next step, the synthesis is repeated until a sufficient number of times. The invention of the prepared compounds of […] (HCV NS5A) inhibitory activity test was performed by CRO service units such as WuXi AppTec etc.

Row | Compound | EC50 [pM]
1 | COC(=O)NC(C(=O)N1CC=C[C@H]1c1ncc(-c2ccc(-c3ccc(-c4cnc([C@@H]5CCCN5C(=O)[C@@H](NC(=O)OC)C(C)C)[nH]4)cc3)cc2)[nH]1)C1CCCCC1 (some centres unmarked) [Compound 6di] | 1 to 999
2 | COC(=O)N[C@H](C(=O)N1CCC[C@H]1c1nc2cc(-c3csc4c(-c5ccc(-c6c[nH]c([C@@H]7CCCN7C(=O)[C@H](NC(=O)OC)c7ccccc7)n6)cc5)csc34)ccc2[nH]1)C(C)C [Ref-4, reference compound] | 1 to 999

Same assay, conditions: Hepatitis C virus, GT1A, GT-1a replicon; class symbols; read-out: EC50 For GT-1a of NS5A Replicon

Row | Compound | EC50 [pM]
3 | COC(=O)N[C@H](C(=O)N1CCCC1c1nc(-c2ccc(-c3ccc(-c4c[nH]c([C@@H]5CCCN5C(=O)C5(NC(=O)OC)CCCCC5)n4)cc3)cc2)c[nH]1)C(C)C (some centres unmarked) [Compound 6aa] | 1 to 999
4 | COC(=O)N[C@H](C(=O)N1CCCC1c1nc(-c2ccc(-c3ccc(-c4c[nH]c([C@@H]5CCCCN5C(=O)[C@@H](NC(=O)OC)C(C)C)n4)cc3)cc2)c[nH]1)C(C)C (some centres unmarked) [Compound 6ab] | 1 to 999
5 | COC(=O)N[C@H](C(=O)N1CN(C(=O)N2Cc3cccc(F)c3C2)CC1c1nc(-c2ccc(-c3ccc(-c4c[nH]c([C@@H]5CCCN5C(=O)[C@@H](NC(=O)OC)C(C)C)n4)cc3)cc2)c[nH]1)C(C)C (some centres unmarked) [Compound 6ar] | 1 to 999
6 | COC(=O)N[C@H](C(=O)N1CN(C(=O)N2Cc3ccc4c(c3C2)OCO4)CC1c1nc(-c2ccc(-c3ccc(-c4c[nH]c([C@@H]5CCCN5C(=O)[C@@H](NC(=O)OC)C(C)C)n4)cc3)cc2)c[nH]1)C(C)C (some centres unmarked) [Compound 6ae] | 1 to 999
7 | COC(=O)N[C@@H](C(=O)N1CC=C[C@H]1c1ncc(-c2ccc(-c3ccc(-c4c[nH]c([C@@H]5CCCN5C(=O)[C@H](NC(=O)OC)c5ccccc5)n4)cc3)cc2)[nH]1)c1ccccc1 [Compound 6dz] | 1 to 999
8 | COC(=O)N[C@H](C(=O)N1CC=CC1c1nc(-c2ccc(-c3ccc(-c4c[nH]c([C@@H]5CCCN5C(=O)C5(NC(=O)OC)CCCCC5)n4)cc3)cc2)c[nH]1)C(C)C (some centres unmarked) [Compound 6bj] | 1 to 999
9 | COC(=O)N[C@H](C(=O)N1CCCC1c1nc2cc(-c3ccc4c(c3)C(F)(F)c3cc(-c5c[nH]c([C@@H]6CN(C(=O)N7Cc8cc9c(cc8C7)OCO9)CN6C(=O)[C@@H](NC(=O)OC)C(C)C)n5)ccc3-4)ccc2[nH]1)C(C)C (some centres unmarked) [Compound 6bs] | > 50000
10 | COC(=O)N[C@H](C(=O)N1CCC[C@H]1c1ncc(-c2ccc(-c3ccc(-c4cnc([C@@H]5CCCN5C(=O)[C@@H](NC(=O)N(C)C)C(C)C)[nH]4)cc3)cc2)[nH]1)C(C)C [Compound 6de] | 1 to 999
11 | COC(=O)NC(C(=O)N1CC=C[C@H]1c1ncc(-c2ccc(-c3cc4sc(-c5cnc([C@@H]6CCCN6C(=O)[C@H](NC(=O)OC)c6ccccc6)[nH]5)cc4o3)cc2)[nH]1)c1ccccc1 (some centres unmarked) [Compound 6fw] | 1 to 999
12 | COC(=O)N[C@H](C(=O)N1CCC[C@H]1c1nc(-c2ccc(-c3ccc(-c4cnc([C@@H]5C[C@@H](OC(=O)N6Cc7cc8c(cc7C6)OCO8)CN5C(=O)[C@@H](NC(=O)OC(C)(C)C)C(C)C)[nH]4)cc3)cc2)c[nH]1)C(C)C [Compound 6m] | 1000 to 49900
13 | CC(C)(C)OC(=O)N[C@H](C(=O)N1CCC[C@H]1c1nc(-c2ccc(-c3ccc(-c4cnc([C@@H]5C[C@@H](OC(=O)N6Cc7cc8c(cc7C6)OCO8)CN5C(=O)[C@@H](NC(=O)OC(C)(C)C)C(C)(C)C)[nH]4)cc3)cc2)c[nH]1)C(C)(C)C [Compound 6k] | > 50000
14 | COC(=O)N[C@H](C(=O)N1CN(C(=O)N2Cc3cccc(Cl)c3C2)CC1c1nc(-c2ccc(-c3ccc(-c4c[nH]c([C@@H]5CCCN5C(=O)[C@@H](NC(=O)OC)C(C)C)n4)cc3)cc2)c[nH]1)C(C)C (some centres unmarked) [Compound 6at] | 1 to 999
15 | COC(=O)N[C@H](C(=O)N1CCCC1c1ncc(-c2ccc3c(c2)cc2n3C(c3ccccc3)Oc3cc(-c4cnc([C@@H]5C=CCN5C(=O)[C@@H](NC(=O)OC)C(C)C)[nH]4)ccc3-2)[nH]1)C(C)C (some centres unmarked) [Compound 6cd] | > 50000
16 | COC(=O)N[C@@H](C(=O)N1CCCC1c1ncc(-c2ccc(-c3cc4sc(-c5cnc([C@@H]6CCCN6C(=O)[C@H](NC(=O)OC)c6ccccc6)[nH]5)cc4s3)cc2)[nH]1)c1ccccc1 (some centres unmarked) [Ref-3, reference compound] | 1 to 999
17 | COC(=O)N[C@H](C(=O)N1C[C@@H](OC(=O)N2Cc3cc4c(cc3C2)OCO4)CC1c1nc(-c2ccc(-c3ccc(-c4c[nH]c([C@@H]5COCCN5C(=O)[C@@H](NC(=O)OC)C(C)C)n4)cc3)cc2)c[nH]1)C(C)C (some centres unmarked) [Compound 6ah] | 1 to 999
18 | COC(=O)N[C@H](C(=O)N1CC(OC(=O)N2Cc3cc4c(cc3C2)OCO4)CC1c1nc(-c2ccc3c(c2)C(F)(F)c2cc(-c4c[nH]c([C@@H]5CCCN5C(=O)[C@@H](NC(=O)OC)C(C)C)n4)ccc2-3)c[nH]1)C(C)C (some centres unmarked) [Compound 6bp] | 1 to 999

Row | Compound | EC50 [pM]
19 | COC(=O)N[C@H](C(=O)N1CC=C[C@H]1c1ncc(-c2ccc(-c3ccc(-c4cnc([C@@H]5CN(C(=O)OC(C)(C)C)CN5C(=O)[C@@H](NC(=O)OC)C5CCCCC5)[nH]4)cc3)cc2)[nH]1)C(C)C [Compound 6cy] | 1 to 999
20 | COC(=O)N[C@H](C(=O)N1CCC[C@H]1c1nc(-c2ccc(-c3ccc(-c4cnc([C@@H]5C[C@@H](OC(=O)N6Cc7cccc(F)c7C6)CN5C(=O)[C@@H](NC(=O)OC(C)(C)C)C(C)C)[nH]4)cc3)cc2)c[nH]1)C(C)C [Compound 6u] | 1000 to 49900
21 | COC(=O)N[C@H](C(=O)N1CCC[C@H]1c1nc(-c2csc3c(-c4ccc(-c5cnc(C6C=CCN6C(=O)[C@H](NC(=O)OC)c6ccccc6)[nH]5)cc4)csc23)c[nH]1)C(C)C (some centres unmarked) [Compound 6fr] | 1 to 999
22 | COC(=O)N[C@H](C(=O)N1CN(C(=O)N2Cc3cc(OC)c(OC)cc3C2)CC1c1nc(-c2ccc(-c3ccc(-c4c[nH]c([C@@H]5CCCN5C(=O)[C@@H](NC(=O)OC)C(C)C)n4)cc3)cc2)c[nH]1)C(C)C (some centres unmarked) [Compound 6ax] | 1 to 999
23 | COC(=O)N[C@H](C(=O)N1CC=CC1c1ncc(-c2ccc(-c3csc4c(-c5c[nH]c([C@@H]6CCCN6C(=O)[C@H](NC(=O)OC)c6ccccc6)n5)csc34)cc2)[nH]1)C(C)C (some centres unmarked) [Compound 6ft] | 1 to 999
24 | COC(=O)NC(C(=O)N1CCC[C@H]1c1nc(-c2ccc(-c3ccc(-c4c[nH]c(C5CN(C(=O)N6Cc7ccc8c(c7C6)OCO8)CN5C(=O)[C@@H](NC(=O)OC)C(C)C)n4)cc3)cc2)c[nH]1)c1ccccc1 (some centres unmarked) [Compound 6ay] | 1 to 999
25 | COC(=O)N[C@H](C(=O)N1CC=CC1c1nc(-c2ccc(-c3ccc(-c4c[nH]c([C@@H]5CCCN5C(=O)C5(NC(=O)OC)CC5)n4)cc3)cc2)c[nH]1)C(C)C (some centres unmarked) [Compound 6bh] | 1 to 999
26 | COC(=O)N[C@H](C(=O)N1CC=CC1c1nc(-c2ccc(-c3ccc(-c4c[nH]c([C@@H]5CCCCN5C(=O)[C@@H](NC(=O)OC)C(C)C)n4)cc3)cc2)c[nH]1)C(C)C (some centres unmarked) [Compound 6bk] | 1 to 999
27 | COC(=O)N[C@H](C(=O)N1CN(C(=O)N2Cc3ccc(OC)cc3C2)CC1c1nc(-c2ccc(-c3ccc(-c4c[nH]c([C@@H]5CCCN5C(=O)[C@@H](NC(=O)OC)C(C)C)n4)cc3)cc2)c[nH]1)C(C)C (some centres unmarked) [Compound 6av] | 1 to 999
28 | CNC(=O)N[C@@H](C(=O)N1CC=CC1c1nc(-c2ccc(-c3ccc(-c4c[nH]c(C5CCCN5C(=O)[C@H](NC(=O)NC)c5ccccc5)n4)cc3)cc2)c[nH]1)c1ccccc1 (some centres unmarked) [Compound 6cf] | 1 to 999
29 | COC(=O)N[C@H](C(=O)N1CN(C(=O)N2Cc3cccc(OC)c3C2)CC1c1nc(-c2ccc(-c3ccc(-c4c[nH]c([C@@H]5CCCN5C(=O)[C@@H](NC(=O)OC)C(C)C)n4)cc3)cc2)c[nH]1)C(C)C (some centres unmarked) [Compound 6aw] | 1 to 999
30 | COC(=O)N[C@H](C(=O)N1C[C@@H](OC(=O)N2Cc3ccc4c(c3C2)OCO4)CC1c1nc(-c2ccc(-c3ccc(-c4c[nH]c([C@@H]5CCCCN5C(=O)[C@@H](NC(=O)OC)C(C)C)n4)cc3)cc2)c[nH]1)C(C)C (some centres unmarked) [Compound 6ad] | 1 to 999
31 | CC(C)[C@H](NC(=O)OC(C)(C)C)C(=O)N1C[C@H](OC(=O)N2Cc3cccc(F)c3C2)CC1c1ncc(-c2ccc(-c3ccc(-c4c[nH]c([C@@H]5CCCN5C(=O)[C@@H](NC(=O)OC(C)(C)C)C(C)C)n4)cc3)cc2)[nH]1 (some centres unmarked) [Compound 6t] | > 50000
32 | COC(=O)N[C@H](C(=O)N1CC=C[C@H]1c1ncc(-c2ccc(-c3ccc(-c4cnc([C@@H]5CCCN5C(=O)[C@@H](NC(=O)OC)C5CCCCC5)[nH]4)cc3)cc2)[nH]1)C1CCCC1 [Compound 6dn] | 1 to 999
33 | COC(=O)N[C@@H](C(=O)N1CC=C[C@H]1c1nc(-c2ccc(-c3ccc(-c4cnc([C@@H]5CC6(CN5C(=O)[C@H](NC(=O)OC)c5ccccc5)OCCO6)[nH]4)cc3)cc2)c[nH]1)c1ccccc1 [Compound 6dv] | 1 to 999
34 | COC(=O)N[C@H](C(=O)N1CC=C[C@H]1c1ncc(-c2ccc(-c3ccc(-c4cnc([C@@H]5CCCN5C(=O)[C@@H](NC(=O)OC)C5CCCC5)[nH]4)cc3)cc2)[nH]1)C1CCCC1 [Compound 6dp] | 1 to 999

Same assay, conditions: Hepatitis C virus, GT1A, read-out: EC50 For GT-1a of NS5A Replicon

Row | Compound | EC50 [pM]
35 | CC(C)[C@H](NC(=O)OC(C)(C)C)C(=O)N1C[C@H](OC(=O)N2Cc3cc4c(cc3C2)OCO4)C[C@H]1c1nc(-c2ccc(-c3ccc(-c4cnc([C@@H]5C[C@@H](OC(=O)N6Cc7cc8c(cc7C6)OCO8)CN5C(=O)[C@@H](NC(=O)OC(C)(C)C)C(C)C)[nH]4)cc3)cc2)c[nH]1 [Compound 6p] | > 50000
36 | COC(=O)N[C@H](C(=O)N1CC2(CC2)C[C@H]1c1nc(-c2ccc3c(c2)C(F)(F)c2cc(-c4ccc5[nH]c([C@@H]6[C@H]7CC[C@H](C7)N6C(=O)[C@@H](NC(=O)OC)C(C)C)nc5c4)ccc2-3)c[nH]1)C(C)C [Ref-2, reference compound] | 1 to 999

Same assay, conditions: Hepatitis C virus, genotype 1a / genotype 6a, read-out: EC50 for Replicon (pM) of GT-1a to GT-6a: 1a

Row | Compound | EC50 [pM]
37 | COC(=O)N[C@@H](C(=O)N1CCCC1c1ncc(-c2ccc(-c3cc4sc(-c5cnc([C@@H]6CCCN6C(=O)[C@H](NC(=O)OC)c6ccccc6)[nH]5)cc4s3)cc2)[nH]1)c1ccccc1 (some centres unmarked) [Ref-3, reference compound] | 51
38 | COC(=O)N[C@H](C(=O)N1CC2(CC2)C[C@H]1c1nc(-c2ccc3c(c2)C(F)(F)c2cc(-c4ccc5[nH]c([C@@H]6[C@H]7CC[C@H](C7)N6C(=O)[C@@H](NC(=O)OC)C(C)C)nc5c4)ccc2-3)c[nH]1)C(C)C [Ref-2, reference compound] | 88
